Experimental findings from patent US11753407B2, “Compounds for treating spinal muscular atrophy” (PTC Therapeutics, Inc., priority 2012, dated 2023) are described below.

Data set [1] has as its system SMN2 minigene mRNA (SMN2-A minigene) in HEK293H cells. Briefly: SMN2 minigene mRNA splicing RT-qPCR assay in cultured cells. Conditions: Homo sapiens, HEK293-H; concentration increasing full length SMN2 mRNA 1.5-fold relative to vehicle-treated cells; HEK293H cells with SMN2-A minigene, 24 hours, 7-point concentration data; read-out: EC1.5x for production of full length SMN2 mRNA. It is filed as cell-based, human. In short, it runs like this: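 EC1.5× = concentration raising full-length SMN2 minigene mRNA 1.5-fold over vehicle, from 7-point curves in duplicate. Stably transfected HEK293H cells exposed 24 h at 37 °C; lysates assayed by multiplex RT-qPCR, minigene FL signal normalized to GAPDH via modified ΔΔCt.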

Data set [2] deals with Smn protein in SMA patient fibroblast cells (GM03813). Briefly: Smn protein assay in cultured cells (SMN HTRF). It counts as cell-based, human. The settings on record: SMA patient fibroblast cells, 48 hours; for EC1.5x for Smn protein expression: 7-point concentration curve, SMN HTRF, concentration producing 1.5 times Smn protein vs DMSO vehicle control; for maximum fold (Fold) increase of Smn protein: 7-point concentration data, fold relative to vehicle control. In short, it runs like this:
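Smn protein quantified by HTRF with anti-SMN d2/kryptate pair, 665/620 nm ratio blank-corrected, in RIPA lysates of GM03813 fibroblasts after 48 h compound exposure (7 concentrations, 3.16-fold steps, triplicates). Values: concentration producing 1.5× vehicle Smn level, and maximal fold increase.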

`COc1ccc(-c2cc(=O)n3cc(C4=CCNCC4)cc(C)c3n2)cc1OC` [Compound 247, 2-(3,4-dimethoxyphenyl)-9-methyl-7-(1,2,3,6-tetrahydropyridin-4-yl)-4H-pyrido[1,2-a]pyrimidin-4-one] returned a melting point of 186 to 191 °C. Also, in data set [1], the EC (1.5-fold increase) is less than 0.1 µM. In data set [2], the “EC1.5x for Smn protein expression” value is reported as “**** (an EC1.5x≤0.3 μM is indicated by four stars (****))” and the “maximum fold (Fold) increase of Smn protein” value (“maximum fold (Fold) increase” below) was “***** (a fold increase >1.65 is indicated by five stars (*****))”.
Compound `COc1ccc(-c2cc(=O)n3cc(C4=CCN(CCO)CC4)ccc3n2)cc1OC` [Compound 248, 2-(3,4-dimethoxyphenyl)-7-[1-(2-hydroxyethyl)-1,2,3,6-tetrahydropyridin-4-yl]-4H-pyrido[1,2-a]pyrimidin-4-one] gave a melting point of 134 to 137 °C. Moreover, in data set [1], the EC (1.5-fold increase) lay within 0.3 to 1 µM. In data set [2], the “EC1.5x for Smn protein expression” value was “*** (an EC1.5× between >0.3 μM and ≤1 μM is indicated by three stars (***))”; the “maximum fold (Fold) increase” value is “**** (a fold increase between >1.5 and ≤1.65 is indicated by four stars (****))”.
Compound `COc1ccc(-c2cc(=O)n3cc(C4CCNCC4)cc(C)c3n2)cc1OC` [Compound 250, 2-(3,4-dimethoxyphenyl)-9-methyl-7-(piperidin-4-yl)-4H-pyrido[1,2-a]pyrimidin-4-one] registered a melting point of 176 to 181 °C. Further, the EC (1.5-fold increase) in data set [1] was less than 0.1 µM. In addition, in data set [2], the “EC1.5x for Smn protein expression” value is listed as “**** (an EC1.5x≤0.3 μM is indicated by four stars (****))” and the “maximum fold (Fold) increase” value is “***** (a fold increase >1.65 is indicated by five stars (*****))”.
In turn, `COc1ccc(-c2cc(=O)n3cc(C4=CCN(C)CC4)cc(C)c3n2)cc1OC` [Compound 251, 2-(3,4-dimethoxyphenyl)-9-methyl-7-(1-methyl-1,2,3,6-tetrahydropyridin-4-yl)-4H-pyrido[1,2-a]pyrimidin-4-one] showed a melting point of 187 to 196 °C. For the same compound, the EC (1.5-fold increase) in data set [1] is less than 0.1 µM. For the same compound, in data set [2], the “EC1.5x for Smn protein expression” value is on record as “**** (an EC1.5x≤0.3 μM is indicated by four stars (****))” and the “maximum fold (Fold) increase” value is “***** (a fold increase >1.65 is indicated by five stars (*****))”.
The compound `COc1ccc(-c2cc(=O)n3cc(C4CCN(C)CC4)cc(C)c3n2)cc1OC` [Compound 252, 2-(3,4-dimethoxyphenyl)-9-methyl-7-(1-methylpiperidin-4-yl)-4H-pyrido[1,2-a]pyrimidin-4-one] came in with a melting point of 170 to 174 °C. In data set [1], the EC (1.5-fold increase) was 0.1 to 0.3 µM. In data set [2], the “EC1.5x for Smn protein expression” value is “*** (an EC1.5× between >0.3 μM and ≤1 μM is indicated by three stars (***))”; the “maximum fold (Fold) increase” value is “**** (a fold increase between >1.5 and ≤1.65 is indicated by four stars (****))”.
`Cc1nc2ccc(-c3cc(=O)n4cc(N5CCCNCC5)ccc4n3)cc2s1` [Compound 253, 7-(1,4-diazepan-1-yl)-2-(2-methyl-1,3-benzothiazol-6-yl)-4H-pyrido[1,2-a]pyrimidin-4-one] came in with a melting point of 205 to 207 °C. Moreover, in data set [1], the EC (1.5-fold increase) lay in the range of 1 to 3 µM. In addition, the “maximum fold (Fold) increase” value in data set [2] is on record as “* (A maximum fold increase of ≤1.2 is indicated by one star (*))”.
Turning to `Cc1nc2ccc(-c3cc(=O)n4cc(N5CCCN(C)CC5)ccc4n3)cc2s1` [Compound 254, 2-(2-methyl-1,3-benzothiazol-6-yl)-7-(4-methyl-1,4-diazepan-1-yl)-4H-pyrido[1,2-a]pyrimidin-4-one], the melting point was in the range of 158 to 160 °C. Moreover, the EC (1.5-fold increase) in data set [1] lay in the range of 0.1 to 0.3 µM. In data set [2], the “EC1.5x for Smn protein expression” value was “** (an EC1.5× between >1 μM and ≤3 μM is indicated by two stars (**))”; the “maximum fold (Fold) increase” value was “*** (a fold increase between >1.35 and ≤1.5 is indicated by three stars (***))”.
The compound `Cc1nc2ccc(-c3cc(=O)n4cc(N5CCN6CCC[C@H]6C5)ccc4n3)cc2s1` [Compound 255, 7-[(8aS)-hexahydropyrrolo[1,2-a]pyrazin-2(1H)-yl]-2-(2-methyl-1,3-benzothiazol-6-yl)-4H-pyrido[1,2-a]pyrimidin-4-one] had a melting point of 250 to 260 °C. In data set [1], the EC (1.5-fold increase) lay in the range of 0.3 to 1 µM. Besides, the “maximum fold (Fold) increase” value in data set [2] was “** (a fold increase between >1.2 and ≤1.35 is indicated by two stars (**))”.
Regarding `Cc1nc2ccc(-c3cc(=O)n4cc(N5CCN(C)CC5)ccc4n3)cc2s1` [Compound 256, 2-(2-methyl-1,3-benzothiazol-6-yl)-7-(4-methylpiperazin-1-yl)-4H-pyrido[1,2-a]pyrimidin-4-one], the melting point is 230 to 234 °C. In addition, the EC (1.5-fold increase) in data set [1] was in the range of 0.3 to 1 µM. Besides, in data set [2], the “EC1.5x for Smn protein expression” value was “** (an EC1.5× between >1 μM and ≤3 μM is indicated by two stars (**))”; the “maximum fold (Fold) increase” value is “**** (a fold increase between >1.5 and ≤1.65 is indicated by four stars (****))”.
With `COc1ccc(-c2cc(=O)n3cc(N4C[C@H]5CNC[C@H]5C4)cc(C)c3n2)cc1OC` [Compound 257, 2-(3,4-dimethoxyphenyl)-7-[(3aR,6aS)-hexahydropyrrolo[3,4-c]pyrrol-2(1H)-yl]-9-methyl-4H-pyrido[1,2-a]pyrimidin-4-one], the melting point worked out at 215 °C. The EC (1.5-fold increase) in data set [1] was less than 0.1 µM. Further, in data set [2], the “EC1.5x for Smn protein expression” value is “** (an EC1.5× between >1 μM and ≤3 μM is indicated by two stars (**))”; the “maximum fold (Fold) increase” value is “**** (a fold increase between >1.5 and ≤1.65 is indicated by four stars (****))”.
As to `Cc1cn2nc(-c3cc(=O)n4cc(N5CCN(C)[C@@H](C)C5)ccc4n3)cc2c(C)n1` [Compound 258, 7-[(3S)-3,4-dimethylpiperazin-1-yl]-2-(4,6-dimethylpyrazolo[1,5-a]pyrazin-2-yl)-4H-pyrido[1,2-a]pyrimidin-4-one], the melting point lay in the range of 220 to 223 °C. Besides, the EC (1.5-fold increase) in data set [1] was less than 0.1 µM. For the same compound, in data set [2], the “EC1.5x for Smn protein expression” value was “*** (an EC1.5× between >0.3 μM and ≤1 μM is indicated by three stars (***))”; the “maximum fold (Fold) increase” value was “**** (a fold increase between >1.5 and ≤1.65 is indicated by four stars (****))”.
The compound `Cc1cn2nc(-c3cc(=O)n4cc(N5C[C@@H](C)N(C)[C@@H](C)C5)ccc4n3)cc2c(C)n1` [Compound 259, 2-(4,6-dimethylpyrazolo[1,5-a]pyrazin-2-yl)-7-[(3R,5S)-3,4,5-trimethylpiperazin-1-yl]-4H-pyrido[1,2-a]pyrimidin-4-one] registered a melting point of 254 to 260 °C. Besides, in data set [1], the EC (1.5-fold increase) was less than 0.1 µM. Moreover, in data set [2], the “EC1.5x for Smn protein expression” value is “*** (an EC1.5× between >0.3 μM and ≤1 μM is indicated by three stars (***))”; the “maximum fold (Fold) increase” value was “**** (a fold increase between >1.5 and ≤1.65 is indicated by four stars (****))”.
In the case of `COc1ccc(-c2cc(=O)n3cc(N4C[C@H]5CN(C)C[C@H]5C4)cc(C)c3n2)cc1OC` [Compound 260, 2-(3,4-dimethoxyphenyl)-9-methyl-7-[(3aR,6aS)-5-methylhexahydropyrrolo[3,4-c]pyrrol-2(1H)-yl]-4H-pyrido[1,2-a]pyrimidin-4-one], the melting point was 212 to 218 °C. In data set [1], the EC (1.5-fold increase) lay within 0.1 to 0.3 µM. Besides, in data set [2], the “EC1.5x for Smn protein expression” value is “** (an EC1.5× between >1 μM and ≤3 μM is indicated by two stars (**))”; the “maximum fold (Fold) increase” value is “*** (a fold increase between >1.35 and ≤1.5 is indicated by three stars (***))”.
In turn, `COc1ccc(-c2cc(=O)n3cc(N4CCC(N(C)C)CC4)cc(C)c3n2)cc1OC` [Compound 261, 2-(3,4-dimethoxyphenyl)-7-[4-(dimethylamino)piperidin-1-yl]-9-methyl-4H-pyrido[1,2-a]pyrimidin-4-one] returned a melting point of 167 to 171 °C. In addition, the EC (1.5-fold increase) in data set [1] is less than 0.1 µM. Also, in data set [2], the “EC1.5x for Smn protein expression” value is “**** (an EC1.5x≤0.3 μM is indicated by four stars (****))”; the “maximum fold (Fold) increase” value was “**** (a fold increase between >1.5 and ≤1.65 is indicated by four stars (****))”.
For `COc1ccc(-c2cc(=O)n3cc(C4=C[C@H]5CC[C@@H](C4)N5)ccc3n2)cc1OC` [Compound 262, 7-[(1R,5S)-8-azabicyclo[3.2.1]oct-2-en-3-yl]-2-(3,4-dimethoxyphenyl)-4H-pyrido[1,2-a]pyrimidin-4-one], the melting point lay within 191 to 194 °C. Besides, the EC (1.5-fold increase) in data set [1] is 0.1 to 0.3 µM. Besides, in data set [2], the “EC1.5x for Smn protein expression” value was “*** (an EC1.5× between >0.3 μM and ≤1 μM is indicated by three stars (***))”; the “maximum fold (Fold) increase” value was “***** (a fold increase >1.65 is indicated by five stars (*****))”.
For `Cc1nc2ccc(-c3cc(=O)n4cc(N5CC[C@@H](N(C)C)C5)ccc4n3)cc2o1` [Compound 264, 7-[(3R)-3-(dimethylamino)pyrrolidin-1-yl]-2-(2-methyl-1,3-benzoxazol-6-yl)-4H-pyrido[1,2-a]pyrimidin-4-one], the melting point lay within 203 to 207 °C. Moreover, in data set [1], the EC (1.5-fold increase) was less than 0.1 µM. In data set [2], the “EC1.5x for Smn protein expression” value is recorded as “**** (an EC1.5x≤0.3 μM is indicated by four stars (****))” and the “maximum fold (Fold) increase” value is “***** (a fold increase >1.65 is indicated by five stars (*****))”.

One may read the melting point as the temperature of the solid-liquid transition.
